In patent publication US11001572B2, “Pyrimidine derivative, method for preparing same and use thereof in medicine” (Zhejiang Hisun Pharmaceutical Co., Ltd., priority 2016, dated 2021):

Assays:
[1] = Body weight and weight loss rate of Huh7 tumor-bearing mice during administration; format: in vivo, BALB/c nude mice; details: 25 mg/kg (IP, bid), 50 mg/kg (IP, bid) and 300 mg/kg (PO, bid); within 22 days
Protocol: (§1) Each group of animals was administrated (intraperitoneal injection (ip) or oral administration (po)) a test substance twice a day (bid) at a fix time per day according to the body weight of the animals. The first dose was administered on the day of grouping ([…]), and continued for 22 days, the body weight of the animals was recorded daily.
The calculation formula for the weight loss rate of animals is (see FIG. 3 for the results): Weight loss rate of animals=100%×(BWinitial−BWt)/BWinitial
wherein, BWt represents the body weight of the animal at each measurement during administration; BWinitial represents the body weight of the animal at the time of grouping administration.

[2] = test system: Huh7 tumor-bearing BALB/c nude mice xenografts; experiment: Growth inhibition of Huh7 xenografts in BALB/c nude mice; format: in vivo; details: 25 mg/kg IP, bid
Protocol: On day 0, Huh7 cells were cultured in DMEM medium containing 10% of fetal bovine serum, 100 U of penicillin, and 100 μg/mL of streptomycin. And cultured in an incubator of 37° C., 5% CO2.
Each mouse was inoculated subcutaneously in the right axilla with 150 μL of cell suspension (5.0×10^6 cells/mouse) under sterile conditions. On day 12 after inoculation, when the tumor grew to a volume of 200-300 mm^3, mice with similar tumor volume and good shape were selected (the shape was as single spherical as possible, no irregular shape or multiple tumors gathered together) and divided into 5 groups, each group had 9 mice.
as §1
The formation of tumor in the inoculated part of each group of animals was observed. The long diameter (Y) and short diameter (X) of the tumor nodules were measured twice a week using vernier calipers and calculated according to the following formula: Volume of tumor nodules(V):V=(X^2Y)/2.
Evaluation index of antitumor activity: tumor growth inhibition rate TGI (%), relative tumor proliferation rate T/C (%).
The relative tumor volume (RTV) is calculated as: RTV=100×TVt/TVinitial
The calculation formula for the relative tumor proliferation rate (% T/C) is: % T/C=100%×(RTVT/RTVC)

Compound	body weight change [1]	Tumor growth inhibition rate (TGI %) ([2]; Day 16 after inoculation) [%]	Tumor growth inhibition rate (TGI %) ([2]; Day 20 after inoculation) [%]	Tumor growth inhibition rate (TGI %) ([2]; Day 23 after inoculation) [%]	Tumor growth inhibition rate (TGI %) ([2]; Day 27 after inoculation) [%]	Tumor growth inhibition rate (TGI %) ([2]; Day 30 after inoculation) [%]	Tumor growth inhibition rate (TGI %) ([2]; Day 34 after inoculation) [%]	Tumor weight inhibition rate (%) ([2]; end of the experiment)
C=CC(=O)Nc1cc(N2CCN(CC)C3(CC3)C2)ccc1Nc1cc(N(C)C(=O)Nc2c(Cl)c(OC)cc(OC)c2Cl)ncn1 [Example 5, N-(2-((6-(3-(2,6-Dichloro-3,5-dimethoxyphenyl)-1-methylureido)pyrimidin-4-yl)amino)-5-(4-ethyl-4,7-diazaspiro[2.5]octan-7-yl)phenyl)acrylamide]	no significant body weight change	–	–	–	–	–	–	–
C=CC(=O)Nc1cc(N2CCN(CC)CC2)ccc1Nc1cc(N(C)C(=O)Nc2c(Cl)c(OC)cc(OC)c2Cl)ncn1 [Example 108 of WO2015057938]	–	34	21	21	29	24	16	2.2
